Test system: GRMD plasma proteins
Format: in vivo, dog
Conditions: Post-Treatment to GRMD baseline

## O=c1ccc(-c2cnc(OCC(F)(F)F)nc2)nn1Cc1cncc(F)c1 [EDG-5506]
Decreased in GRMD
  Protein jagged-1 (JAG1): Change from GRMD Baseline (fraction): 0.0021 fraction
  Retinol-binding protein 4 (RBP4): Change from GRMD Baseline (fraction): 0.0032 fraction
  Roundabout homolog 2 (ROBO2): Change from GRMD Baseline (fraction): -0.0814 fraction
  SLIT and NTRK-like protein 5 (SLITRK5): Change from GRMD Baseline (fraction): -0.2994 fraction
  SPARC (SPARC): Change from GRMD Baseline (fraction): -0.1611 fraction
  Sclerostin (SOST): Change from GRMD Baseline (fraction): 0.0855 fraction
  Semaphorin-3E (SEMA3E): Change from GRMD Baseline (fraction): -0.1435 fraction
  Semaphorin-5A (SEMA5A): Change from GRMD Baseline (fraction): -0.108 fraction
  Serum albumin (ALB): Change from GRMD Baseline (fraction): -0.0304 fraction
  Sialic acid-binding Ig-like lectin 6 (SIGLEC6): Change from GRMD Baseline (fraction): 0.0534 fraction
  Stem cell growth factor-alpha (CLEC11A): Change from GRMD Baseline (fraction): -0.1896 fraction
  T-lymphocyte surface antigen Ly-9 (LY9): Change from GRMD Baseline (fraction): 0.0022 fraction
  TGF-beta receptor type-2 (TGFBR2): Change from GRMD Baseline (fraction): 0.1736 fraction
  Tropomyosin alpha-1 chain (TPM1): Change from GRMD Baseline (fraction): 0.8207 fraction
  Tumor necrosis factor receptor superfamily member 10B (TNFRSF10B): Change from GRMD Baseline (fraction): -0.0324 fraction
  Tumor necrosis factor-inducible gene 6 protein (TNFAIP6): Change from GRMD Baseline (fraction): 1.4994 fraction
  Wnt inhibitory factor 1 (WIF1): Change from GRMD Baseline (fraction): -0.1154 fraction
Increased in GRMD
  Activated Protein C (PROC): Change from GRMD Baseline (fraction): 0.4863 fraction
  Adiponectin (ADIPOQ): Change from GRMD Baseline (fraction): 0.0194 fraction
  Alanine aminotransferase 1 (GPT): Change from GRMD Baseline (fraction): 0.0095 fraction
  Alpha-2-antiplasmin (SERPINF2): Change from GRMD Baseline (fraction): -0.0109 fraction
  Apolipoprotein D (APOD): Change from GRMD Baseline (fraction): 0.0538 fraction
  Apolipoprotein L1 (APOL1): Change from GRMD Baseline (fraction): -0.0015 fraction
  Asialoglycoprotein receptor 1 (ASGR1): Change from GRMD Baseline (fraction): -0.0063 fraction
  Bone morphogenetic protein 1 (BMP1): Change from GRMD Baseline (fraction): -0.0803 fraction
  Breast cancer anti-estrogen resistance protein 3 (BCAR3): Change from GRMD Baseline (fraction): -0.0258 fraction
  C5a anaphylatoxin (C5): Change from GRMD Baseline (fraction): -0.0743 fraction
  C-C motif chemokine 1 (CCL1): Change from GRMD Baseline (fraction): 0.0039 fraction
  C-C motif chemokine 3 (CCL3): Change from GRMD Baseline (fraction): -0.0317 fraction
  C-X-C motif chemokine 5 (CXCL5): Change from GRMD Baseline (fraction): 0.0104 fraction
  CD63 antigen (CD63): Change from GRMD Baseline (fraction): -0.0301 fraction
  CD97 antigen (CD97): Change from GRMD Baseline (fraction): 0.0218 fraction
  CD109 antigen (CD109): Change from GRMD Baseline (fraction): 0.0141 fraction
  CD177 antigen (CD177): Change from GRMD Baseline (fraction): -0.108 fraction
  Carbonic anhydrase 4 (CA4): Change from GRMD Baseline (fraction): 0.0571 fraction
  Caspase-3 (CASP3): Change from GRMD Baseline (fraction): -0.049 fraction
  Cell adhesion molecule 3 (CADM3): Change from GRMD Baseline (fraction): 0.0642 fraction
  Change from GRMD Baseline (fraction): 1-phosphatidylinositol 4,5-bisphosphate phosphodiesterase gamma-1 (PLCG1): 0.0175 fraction
  Change from GRMD Baseline (fraction): 14-3-3 protein family (YWHAB,YWHAE,YWHAG,YWHAH,YWHAQ,YWHAZ,SFN): -0.0622 fraction
  Change from GRMD Baseline (fraction): 26S proteasome non-ATPase regulatory subunit 7 (PSMD7): -0.0966 fraction
  Change from GRMD Baseline (fraction): 40S ribosomal protein S7 (RPS7): -0.1727 fraction
  Change from GRMD Baseline (fraction): A disintegrin and metalloproteinase with thrombospondin motifs 5 (ADAMTS5): 0.0247 fraction
  Change from GRMD Baseline (fraction): A disintegrin and metalloproteinase with thrombospondin motifs 15 (ADAMTS15): 0.1616 fraction
  Change from GRMD Baseline (fraction): AH receptor-interacting protein (AIP): 0.0125 fraction
  Change from GRMD Baseline (fraction): AMP Kinase (alpha2beta2gamma1) (PRKAA2 PRKAB2 PRKAG1): -0.177 fraction
  Change from GRMD Baseline (fraction): ATP synthase subunit beta, mitochondrial (ATP5B): 0.0065 fraction
  Change from GRMD Baseline (fraction): ATP-dependent RNA helicase DDX19B (DDX19B): -0.0978 fraction
  Change from GRMD Baseline (fraction): Acidic leucine-rich nuclear phosphoprotein 32 family member B (ANP32B): -0.0886 fraction
  Change from GRMD Baseline (fraction): Activin receptor type-1B (ACVR1B): -0.017 fraction
  Change from GRMD Baseline (fraction): Adenylate kinase isoenzyme 1 (AK1): -0.2055 fraction
  Change from GRMD Baseline (fraction): Adenylosuccinate lyase (ADSL): 0.0105 fraction
  Change from GRMD Baseline (fraction): Afamin (AFM): -0.0171 fraction
  Change from GRMD Baseline (fraction): Aflatoxin B1 aldehyde reductase member 2 (AKR7A2): -0.0506 fraction
  Change from GRMD Baseline (fraction): Alcohol dehydrogenase [NADP(+)] (AKR1A1): -0.1025 fraction
  Change from GRMD Baseline (fraction): Aminoacylase-1 (ACY1): -0.1248 fraction
  Change from GRMD Baseline (fraction): Amphoterin-induced protein 2 (AMIGO2): -0.0371 fraction
  Change from GRMD Baseline (fraction): Annexin A6 (ANXA6): -0.0862 fraction
  Change from GRMD Baseline (fraction): Anterior gradient protein 2 homolog (AGR2): 0.2414 fraction
  Change from GRMD Baseline (fraction): Apolipoprotein E (APOE): 0.0948 fraction

From paper PMC10178848, “Modulating fast skeletal muscle contraction protects skeletal muscle in animal models of Duchenne muscular dystrophy” (The Journal of Clinical Investigation, 2023)
